What was measured:
mouse = assay: Single oral dose toxicity in mouse; assay type: in vivo; conditions: mouse, in vivo, po, 100 mg/kg
[1] = system: nerve growth factor production by L-M cells; assay: Enhancement of nerve growth factor production in L-M cells (enzyme immunoassay); assay type: cell-based, Rat
Experimental: Rat fibroblast L-M cells (ATCC CCL-1.2) were suspended in a M199 medium (Gibco) containing 0.5% Bacto Peptone (Gibco) at a concentration of 1.0 x 10^5 cells/ml. 1 ml of the suspension was inoculated into each well of a 24-well plate. The cells were cultured aseptically. After culturing for 2 days, the medium was removed and substituted with a M199 medium containing 0.5% bovine serum albumin (Sigma). Then, cyclopentenone (final concentration of 1 to 25 µM), 4HCP (Aldrich) (final concentration of 12.5µM) or dipropionylcyclopentenone (final concentration of 3.1 to 9.4 µM) was added thereto. […]
After completion of the incubation, the concentration of nerve growth factor in the culture was measured by enzyme immunoassay (NGF Emax Immuno Assay System: Promega). […]

[2] = system: HGF production, MRC-5 cells; assay: Enhancement of HGF production in MRC-5 cells (ELISA); assay type: cell-based, Human; conditions: for Increase in HGF production: 24 hours, negative control defined as 100% (7.2 ng/ml)
Experimental: MRC-5 cells (CCL171, Dainippon Pharmaceutical) were suspended in a DME medium (Bio Whittaker) containing 10% fetal calf serum at a concentration of 1 x 10^5 cells/ml. 500 µl of the suspension was placed into a 48-well cell culture plate. After culturing at 37°C in the presence of 5% CO2 for 24 hours, the medium was exchanged for a DME medium containing 1% fetal calf serum. Then, one of samples was added thereto. The plate was incubated for additional 24 hours. The medium was then recovered, and the amount of HGF in the culture medium was measured using Quantikine Human Hepatocyte Growth Factor (HGF) ELISA Kit (Funakoshi). The amount of HGF produced was expressed defining a negative control as 100%. In this case, the amount of HGF produced for the negative control was 7.2 ng/ml. Cyclopentenone (at a final concentration of 20, 40 or 160 µM), GM (at a final concentration of 20, 40, 80 or 160 µM), or dipropionylcyclopentenone (at a final concentration of 32 or 64 µM) was added as a sample. As a negative control, distilled water was added in the same volume as the sample. As a positive control, prostaglandin E1 was added at a final concentration of 0.01, 0.1, 1 or 10 µM.

[3] = system: human insulin-like growth factor-1 (h-IGF-1) production in Hs68 cells; assay: Enhancement of h-IGF-1 production in Hs68 cells (ELISA); assay type: cell-based; conditions: Example 3-(2): 10 to 20 µM
Experimental: (1) Human newborn foreskin […] Hs68 cells (ATCC CRL-1635) were cultured in a D-MEM medium (Bio Whittaker) containing 10% fetal calf serum (FBS; Gibco BRL) in the presence of 5% CO2 at 37°C to saturation in a culture vessel. Then, the cells were suspended in the medium at a concentration of 3 x 10^5/ml using a trypsin-EDTA solution (Bio Whittaker). 200 µl of the suspension was dispensed into each well of a 96-well microtiter plate. When the cells were almost saturated in the culture vessel after culturing for 5 days, the medium was discarded and a medium containing 4HCP at a concentration of 40, 100 or 200 µM was added thereto. The culture supernatant was recovered at intervals of 24 hours for up to 96 hours. The effect of 4HCP on enhancement of human insulin-like growth factor-1 (h-IGF-1) production in Hs68 cells was determined using ELISA-Kit for h-IGF-1 (Diagnostic System Labo).
(2) Hs68 cells were cultured in a D-MEM medium containing 10% fetal calf serum in the presence of 5% CO2 at 37°C to saturation in a culture vessel. Then, the cells were suspended in the medium at a concentration of 3 x 10^5/ml using a trypsin-EDTA solution. 200 µl of the suspension was dispensed into each well of a 96-well microtiter plate. When the cells were almost saturated in the culture vessel after culturing for 5 to 7 days, the medium was discarded and the medium containing cyclopentenone or GM at a concentration of 0, 2.5, 5, 10 or 20 µM was added thereto. The culture supernatant was recovered at 1, 3, 6, 12, 24 or 48 hours. The effect of cyclopentenone or GM on the production (enhancement of expression) of h-IGF-1 in Hs68 cells was determined using ELISA-Kit for h-IGF-1. […] The amount of h-IGF-1 produced 6 hours after the addition was about twice the amount for the control with no addition. […] (3) Hs68 cells were cultured in a D-MEM medium containing 10% fetal calf serum in the presence of 5% CO2 at 37°C to saturation in a culture vessel. Then, the cells were suspended in the medium at a concentration of 3 x 10^5/ml using a trypsin-EDTA solution. 200 µl of the suspension was dispensed into each well of a 96-well microtiter plate. When the cells were almost saturated in the culture vessel after culturing for 5 to 7 days, the medium was discarded and the medium containing 4HCP, a compound of formula (XVIII) (4HCP-GSH) or glutathione (GSH) at a concentration of 0, 25, 50, 100 or 200 µM was added thereto. The culture supernatant was recovered at 1, 3, 6, 12, 24 or 48 hours. The effect on the production (enhancement of expression) of h-IGF-1 in Hs68 cells was determined using ELISA-Kit for h-IGF-1. As a result, when 4HCP was added at a concentration of 25 to 200 µM, h-IGF production in Hs68 cells became maximal at 1 hour and decreased thereafter as the time went by. […] Significant enhancement of h-IGF-1 production was observed when cultured for 10 to 30 minutes. […]

## O=C1C=CC(O)C1O (centres unmarked) [cyclopentenone, 4,5-dihydroxy-2-cyclopenten-1-one]
mouse
  death after single oral dose: no example of death was observed
[1]; 1 µM, 24 hours, 0 µM control 0.570
  Nerve growth factor concentration: 0.700 ng/mL
[1]; 2.5 µM, 24 hours, 0 µM control 0.570
  Nerve growth factor concentration: 0.740 ng/mL
[1]; 5 µM, 24 hours, 0 µM control 0.570
  Nerve growth factor concentration: 0.870 ng/mL
[1]; 7.5 µM, 24 hours, 0 µM control 0.570
  Nerve growth factor concentration: 0.900 ng/mL
[1]; 10 µM, 24 hours, 0 µM control 0.570
  Nerve growth factor concentration: 1.080 ng/mL
[1]; 12.5 µM, 24 hours, 0 µM control 0.570
  Nerve growth factor concentration: 1.340 ng/mL
[1]; 15 µM, 24 hours, 0 µM control 0.570
  Nerve growth factor concentration: 1.550 ng/mL
[1]; 17.5 µM, 24 hours, 0 µM control 0.570
  Nerve growth factor concentration: 2.150 ng/mL
[1]; 20 µM, 24 hours, 0 µM control 0.570
  Nerve growth factor concentration: 1.900 ng/mL
[1]; 25 µM, 24 hours, 0 µM control 0.570
  Nerve growth factor concentration: 1.540 ng/mL
[1]; 24 hours incubation
  production of nerve growth factor by L-M cells (result in words): enhanced the production of nerve growth factor by L-M cells in a concentration-dependent manner
[1]; time course: 15 µM, cultivation time 0 hour, control 0.000
  Nerve growth factor concentration: 0.000 ng/mL
[1]; time course: 15 µM, cultivation time 3 hour, control 0.028
  Nerve growth factor concentration: 0.050 ng/mL
[1]; time course: 15 µM, cultivation time 6 hour, control 0.233
  Nerve growth factor concentration: 0.359 ng/mL
[1]; time course: 15 µM, cultivation time 12 hour, control 0.575
  Nerve growth factor concentration: 0.686 ng/mL
[1]; time course: 15 µM, cultivation time 24 hour, control 0.658
  Nerve growth factor concentration: 1.186 ng/mL
[1]; time course: 15 µM, cultivation time 48 hour, control 0.736
  Nerve growth factor concentration: 1.236 ng/mL
[1]; time course: 17.5 µM, cultivation time 0 hour, control 0.000
  Nerve growth factor concentration: 0.000 ng/mL
[1]; time course: 17.5 µM, cultivation time 3 hour, control 0.028
  Nerve growth factor concentration: 0.054 ng/mL
[1]; time course: 17.5 µM, cultivation time 6 hour, control 0.233
  Nerve growth factor concentration: 0.205 ng/mL
[1]; time course: 17.5 µM, cultivation time 12 hour, control 0.575
  Nerve growth factor concentration: 0.635 ng/mL
[1]; time course: 17.5 µM, cultivation time 24 hour, control 0.658
  Nerve growth factor concentration: 1.535 ng/mL
[1]; time course: 17.5 µM, cultivation time 48 hour, control 0.736
  Nerve growth factor concentration: 1.492 ng/mL
[1]; time course: 20 µM, cultivation time 0 hour, control 0.000
  Nerve growth factor concentration: 0.000 ng/mL
[1]; time course: 20 µM, cultivation time 3 hour, control 0.028
  Nerve growth factor concentration: 0.082 ng/mL
[1]; time course: 20 µM, cultivation time 6 hour, control 0.233
  Nerve growth factor concentration: 0.179 ng/mL
[1]; time course: 20 µM, cultivation time 12 hour, control 0.575
  Nerve growth factor concentration: 0.581 ng/mL
[1]; time course: 20 µM, cultivation time 24 hour, control 0.658
  Nerve growth factor concentration: 1.681 ng/mL
[1]; time course: 20 µM, cultivation time 48 hour, control 0.736
  Nerve growth factor concentration: 1.874 ng/mL
[2]; 20 µM
  Increase in HGF production: 144%
[2]; 40 µM
  Increase in HGF production: 218%
[2]; 160 µM
  Increase in HGF production: 238%
[2]; negative control: distilled water
  amount of HGF produced as compared with the negative control (result in words): significantly increased
[3]
  production of h-IGF-1 in Hs68 cells (result in words): h-IGF-1 production was observed from 1-hour to 6 hours after the addition
